{
  "source": "patent US20020151562A1",
  "about": "“Compositions and methods for treating allergic fungal sinusitis” (priority 2001, published 2002)",
  "tested_on": "patients diagnosed to have allergic fungal sinusitis resistant to treatment",
  "assay": "Nasal Spray Study: patient questionnaire after two months of intranasal treatment",
  "conditions": "for effectiveness in treating allergic fungal sinusitis, allergic rhinitis and asthma (symptom relief): extremely low dose, patients resistant to standard treatments including corticosteroids; for side effects: low dose, patients tested",
  "text": "Fifty-four patients were selected on the basis of their failure to respond to intranasal corticosteroids for the treatment of acute and chronic sinusitis and allergic rhinitis and positive skin tests to fungi. […] The age range was 6 years to 71 years.\nEach patient was instructed to use two sprays in each nostril twice daily, AM and PM for a total of four sprays per nostril per day. Treatment lasted for two months.\nTherefore, the status of the patients' symptoms were documented over a period of two months.\nThe following statements were posed to the patients after treatment for two months with regard to their symptoms before and after the course of treatment.",
  "key": {"[1]": {"conditions": "intranasal, listed as compound of formula I"}},
  "note": "“Also recorded” adds a separate entry of the source.",
  "data": [
    {"smiles": "CC(C)(O)c1ccccc1CC[C@@H](SCC1(CC(=O)[O-])CC1)c1cccc(/C=C/c2ccc3ccc(Cl)cc3n2)c1.[Na+]", "note": "[sodium salt of montelukast, montelukast]", "values": [
      {"measurement": "Total Number of Patients Post Treatment Reporting Improvement (sinus pain, post nasal drip and nasal congestion worse in cold weather)", "setting": "52 tested, 21 reporting prior to treatment, intranasal, two months", "result": 14, "unit": "patients"},
      {"measurement": "Total Number of Patients Post Treatment that Reported Improvement (worry that sinus pain, post nasal drip and nasal congestion affect health and make it difficult to sleep)", "setting": "52 tested, 31 reporting prior to treatment, intranasal, two months", "result": 30, "unit": "patients"},
      {"measurement": "Total Number of Patients Reporting Improvement (sinus and nasal congestion worse around tobacco smoke, fumes or strong odors)", "setting": "52 tested, 42 reporting prior to treatment, intranasal, two months", "result": 24, "unit": "patients"},
      {"measurement": "Total Number of Patients Post Treatment Reporting Improvement (sleeping trouble due to coughing and choking attacks, post nasal drip and sinus pain)", "setting": "52 treated, 29 reporting prior to treatment, intranasal, two months", "result": 28, "unit": "patients"},
      {"measurement": "Total Number of Patients Post Treatment that Reported Improvement (allergy medicine does not control nasal congestion, sinusitis, post nasal drip and ear congestion)", "setting": "52 treated, 42 reporting prior to treatment, intranasal, two months", "result": 42, "unit": "patients"},
      {"measurement": "Total Number of Patients Reporting Improvement (respiratory infection goes into sinuses, ears and nose)", "setting": "52 treated, 44 reporting prior to treatment, intranasal, two months", "result": 27, "unit": "patients"},
      {"measurement": "Total Number of Patients Post Treatment Reporting Improvement (dust, pollen and pets cause nasal congestion, sinus pain, ear pain and dizziness)", "setting": "52 treated, 45 reporting prior to treatment, intranasal, two months", "result": 37, "unit": "patients"},
      {"measurement": "patients with positive results and alleviation of major symptoms", "setting": "at the end of two months, of the fifty-two patients, intranasal saline spray", "result": "forty-two"},
      {"measurement": "effectiveness in treating allergic fungal sinusitis, allergic rhinitis and asthma (symptom relief)", "setting": "intranasal", "result": "effective not only in relieving nasal congestions, sinus pain, post nasal drip, throat pain and serous otitis media, but it also helped their asthma; also recorded: effective"},
      {"measurement": "effectiveness in treating allergic fungal sinusitis, allergic rhinitis and asthma (symptom relief)", "setting": "[1]", "result": "improvement in these non-responders was noticed"},
      {"measurement": "side effects", "setting": "intranasal", "result": "no significant side effects"},
      {"measurement": "side effects", "setting": "[1]", "result": "without harmful effects"},
      {"measurement": "time to some recovery after application", "setting": "nasal spray, low dosages", "result": "within one day"},
      {"measurement": "Total Number of Patients Reporting Improvement of Breathing Post-Treatment", "setting": "statement: trouble breathing or cough when walking or doing simple chores, 52 treated, 34 with trouble breathing before treatment, intranasal, two months", "result": 24, "unit": "patients"}
    ]}
  ]
}
